Experiment: Pigment stabilization effect (sequestering agent combination)
Set-up: key to Sunlight exposure (80 MJ) Appearance: A: No change; B: No almost change; C: Yes change; key to Sunlight exposure (80 MJ) ΔE: color difference ΔE in Lab space vs. color before sunlight exposure
Conditions: for Sunlight exposure (80 MJ) Appearance / Sunlight exposure (80 MJ) ΔE: amounts wt %
Protocol: First of all, the photostabilization effect and appearance changes of a composition for each pigment were studied by the following evaluation formulation.
Each test sample was prepared. Observation of appearance changes (visual evaluation) and measurement of color difference (ΔE) were carried out for samples exposed to sunlight (around 80 MJ).
Color difference was measured by Lab coordinate system with spectrophotometer. Color difference was calculated based on the color before sunlight exposure. Namely, from the measured value (L1,a1,b1) before sunlight exposure, color difference (ΔE) was calculated by following formula.

[1] = colorant Blue No. 1 0.0001, photostabilizer 0.02 + Sodium metaphosphate 0.03
[2] = colorant Blue No. 1 0.0001, photostabilizer 0.02 + Trisodium ethylenediamine tetraacetate 0.03
[3] = colorant Blue No. 1 0.0001, photostabilizer 0.02 + Trisodium hydroxyethyl ethylenediamine triacetate 0.03
[4] = colorant Blue No. 1 0.0001, photostabilizer 0.02, no sequestering agent
[5] = colorant Green No. 3 0.0001, photostabilizer 0.02 + Sodium metaphosphate 0.03
[6] = colorant Green No. 3 0.0001, photostabilizer 0.02 + Sodium polyphosphate 0.03
[7] = colorant Green No. 3 0.0001, photostabilizer 0.02 + Trisodium ethylenediamine tetraacetate 0.03
[8] = colorant Green No. 3 0.0001, photostabilizer 0.02, no sequestering agent
[9] = colorant Red No. 106 0.0001, photostabilizer 0.02 + Sodium metaphosphate 0.02
[10] = colorant Red No. 106 0.0001, photostabilizer 0.02 + Sodium polyphosphate 0.02
[11] = colorant Red No. 106 0.0001, photostabilizer 0.02 + Trisodium ethylenediamine tetraacetate 0.02
[12] = colorant Red No. 106 0.0001, photostabilizer 0.02, no sequestering agent
[13] = colorant Red No. 213 0.0001, photostabilizer 0.03 + Sodium metaphosphate 0.05
[14] = colorant Red No. 213 0.0001, photostabilizer 0.03 + Trisodium ethylenediamine tetraacetate 0.05
[15] = colorant Red No. 213 0.0001, photostabilizer 0.03 + Trisodium hydroxyethyl ethylenediamine triacetate 0.05
[16] = colorant Red No. 213 0.0001, photostabilizer 0.03, no sequestering agent
[17] = colorant Red No. 227 0.0001, photostabilizer 0.01 + Sodium metaphosphate 0.02
[18] = colorant Red No. 227 0.0001, photostabilizer 0.01 + Trisodium ethylenediamine tetraacetate 0.02
[19] = colorant Red No. 227 0.0001, photostabilizer 0.01 + Trisodium hydroxyethyl ethylenediamine triacetate 0.02
[20] = colorant Red No. 227 0.0001, photostabilizer 0.01, no sequestering agent
[21] = colorant Red No. 401 0.001, photostabilizer 0.02 + Sodium metaphosphate 0.1
[22] = colorant Red No. 401 0.001, photostabilizer 0.02 + Sodium polyphosphate 0.1
[23] = colorant Red No. 401 0.001, photostabilizer 0.03 + Trisodium ethylenediamine tetraacetate 0.1
[24] = colorant Red No. 401 0.001, photostabilizer 0.03, no sequestering agent
[25] = colorant Yellow No. 5 0.001, photostabilizer 0.01 + Sodium metaphosphate 0.02
[26] = colorant Yellow No. 5 0.001, photostabilizer 0.01 + Sodium polyphosphate 0.02
[27] = colorant Yellow No. 5 0.001, photostabilizer 0.01 + Trisodium ethylenediamine tetraacetate 0.02
[28] = colorant Yellow No. 5 0.001, photostabilizer 0.01, no sequestering agent
[29] = colorant Yellow No. 203 0.001, photostabilizer 0.01 + Sodium metaphosphate 0.02
[30] = colorant Yellow No. 203 0.001, photostabilizer 0.01 + Trisodium ethylenediamine tetraacetate 0.02
[31] = colorant Yellow No. 203 0.001, photostabilizer 0.01 + Trisodium hydroxyethyl ethylenediamine triacetate 0.02
[32] = colorant Yellow No. 203 0.001, photostabilizer 0.01, no sequestering agent
[33] = colorants Red No. 106 0.00001 + Yellow No. 5 0.0001, photostabilizer 0.02 + Trisodium ethylenediamine tetraacetate 0.02
[34] = colorants Red No. 106 0.00001 + Yellow No. 5 0.0001, photostabilizer 0.02, no sequestering agent
[35] = colorants Red No. 106 0.00001 + Yellow No. 203 0.0001, photostabilizer 0.02 + Trisodium hydroxyethyl ethylenediamine triacetate 0.02
[36] = colorants Red No. 106 0.00001 + Yellow No. 203 0.0001, photostabilizer 0.02, no sequestering agent
[37] = colorants Red No. 213 0.00001 + Blue No. 1 0.00001, photostabilizer 0.02 + Trisodium hydroxyethyl ethylenediamine triacetate 0.03
[38] = colorants Red No. 213 0.00001 + Blue No. 1 0.00001, photostabilizer 0.02, no sequestering agent
[39] = colorants Red No. 227 0.0001 + Yellow No. 5 0.0001, photostabilizer 0.02 + Trisodium ethylenediamine tetraacetate 0.02
[40] = colorants Red No. 227 0.0001 + Yellow No. 5 0.0001, photostabilizer 0.02, no sequestering agent
[41] = colorants Red No. 227 0.0001 + Yellow No. 203 0.0001, photostabilizer 0.05 + Sodium metaphosphate 0.02
[42] = colorants Red No. 227 0.0001 + Yellow No. 203 0.0001, photostabilizer 0.05, no sequestering agent
[43] = colorants Red No. 401 0.0001 + Blue No. 1 0.00001, photostabilizer 0.02 + Trisodium ethylenediamine tetraacetate 0.03
[44] = colorants Red No. 401 0.0001 + Blue No. 1 0.00001, photostabilizer 0.02, no sequestering agent
[45] = colorants Red No. 401 0.0001 + Green No. 3 0.00001, photostabilizer 0.02 + Sodium metaphosphate 0.03
[46] = colorants Red No. 401 0.0001 + Green No. 3 0.00001, photostabilizer 0.02, no sequestering agent
[47] = colorants Yellow No. 203 0.0001 + Yellow No. 5 0.0001, photostabilizer 0.02 + Sodium metaphosphate 0.01
[48] = colorants Yellow No. 203 0.0001 + Yellow No. 5 0.0001, photostabilizer 0.02, no sequestering agent

Oc1nncc(N2CCOCC2)c1N1CCOCC1 [4,5-Dimorpholino-3-hydroxypyridazine]
Sunlight exposure (80 MJ) Appearance [1]: A | Sunlight exposure (80 MJ) ΔE [1]: 1.00 | Sunlight exposure (80 MJ) Appearance [2]: A | Sunlight exposure (80 MJ) ΔE [2]: 1.18 | Sunlight exposure (80 MJ) Appearance [3]: A | Sunlight exposure (80 MJ) ΔE [3]: 1.08 | Sunlight exposure (80 MJ) Appearance [4]: B | Sunlight exposure (80 MJ) ΔE [4]: 1.74 | Sunlight exposure (80 MJ) Appearance [5]: A | Sunlight exposure (80 MJ) ΔE [5]: 0.28 | Sunlight exposure (80 MJ) Appearance [6]: A | Sunlight exposure (80 MJ) ΔE [6]: 0.52 | Sunlight exposure (80 MJ) Appearance [7]: A | Sunlight exposure (80 MJ) ΔE [7]: 0.48 | Sunlight exposure (80 MJ) Appearance [8]: B | Sunlight exposure (80 MJ) ΔE [8]: 0.75 | Sunlight exposure (80 MJ) Appearance [9]: A | Sunlight exposure (80 MJ) ΔE [9]: 0.77 | Sunlight exposure (80 MJ) Appearance [10]: A | Sunlight exposure (80 MJ) ΔE [10]: 0.85 | Sunlight exposure (80 MJ) Appearance [11]: A | Sunlight exposure (80 MJ) ΔE [11]: 0.84 | Sunlight exposure (80 MJ) Appearance [12]: B | Sunlight exposure (80 MJ) ΔE [12]: 1.23 | Sunlight exposure (80 MJ) Appearance [13]: A | Sunlight exposure (80 MJ) ΔE [13]: 1.38 | Sunlight exposure (80 MJ) Appearance [14]: A | Sunlight exposure (80 MJ) ΔE [14]: 1.45 | Sunlight exposure (80 MJ) Appearance [15]: A | Sunlight exposure (80 MJ) ΔE [15]: 1.41 | Sunlight exposure (80 MJ) Appearance [16]: B | Sunlight exposure (80 MJ) ΔE [16]: 2.12 | Sunlight exposure (80 MJ) Appearance [17]: B | Sunlight exposure (80 MJ) ΔE [17]: 0.84 | Sunlight exposure (80 MJ) Appearance [18]: A | Sunlight exposure (80 MJ) ΔE [18]: 0.62 | Sunlight exposure (80 MJ) Appearance [19]: A | Sunlight exposure (80 MJ) ΔE [19]: 0.58 | Sunlight exposure (80 MJ) Appearance [20]: B | Sunlight exposure (80 MJ) ΔE [20]: 0.98 | Sunlight exposure (80 MJ) Appearance [21]: A | Sunlight exposure (80 MJ) ΔE [21]: 0.66 | Sunlight exposure (80 MJ) Appearance [22]: A | Sunlight exposure (80 MJ) ΔE [22]: 0.78 | Sunlight exposure (80 MJ) Appearance [23]: A | Sunlight exposure (80 MJ) ΔE [23]: 0.71 | Sunlight exposure (80 MJ) Appearance [24]: A | Sunlight exposure (80 MJ) ΔE [24]: 0.95 | Sunlight exposure (80 MJ) Appearance [25]: A | Sunlight exposure (80 MJ) ΔE [25]: 0.36 | Sunlight exposure (80 MJ) Appearance [26]: A | Sunlight exposure (80 MJ) ΔE [26]: 0.33 | Sunlight exposure (80 MJ) Appearance [27]: A | Sunlight exposure (80 MJ) ΔE [27]: 0.32 | Sunlight exposure (80 MJ) Appearance [28]: B | Sunlight exposure (80 MJ) ΔE [28]: 0.61 | Sunlight exposure (80 MJ) Appearance [29]: A | Sunlight exposure (80 MJ) ΔE [29]: 0.22 | Sunlight exposure (80 MJ) Appearance [30]: A | Sunlight exposure (80 MJ) ΔE [30]: 0.28 | Sunlight exposure (80 MJ) Appearance [31]: A | Sunlight exposure (80 MJ) ΔE [31]: 0.25 | Sunlight exposure (80 MJ) Appearance [32]: B | Sunlight exposure (80 MJ) ΔE [32]: 0.95 | Sunlight exposure (80 MJ) Appearance [33]: A | Sunlight exposure (80 MJ) ΔE [33]: 0.98 | Sunlight exposure (80 MJ) Appearance [34]: B | Sunlight exposure (80 MJ) ΔE [34]: 1.33 | Sunlight exposure (80 MJ) Appearance [35]: A | Sunlight exposure (80 MJ) ΔE [35]: 0.75 | Sunlight exposure (80 MJ) Appearance [36]: A | Sunlight exposure (80 MJ) ΔE [36]: 1.10 | Sunlight exposure (80 MJ) Appearance [37]: A | Sunlight exposure (80 MJ) ΔE [37]: 1.22 | Sunlight exposure (80 MJ) Appearance [38]: B | Sunlight exposure (80 MJ) ΔE [38]: 1.88 | Sunlight exposure (80 MJ) Appearance [39]: A | Sunlight exposure (80 MJ) ΔE [39]: 0.71 | Sunlight exposure (80 MJ) Appearance [40]: B | Sunlight exposure (80 MJ) ΔE [40]: 1.02 | Sunlight exposure (80 MJ) Appearance [41]: A | Sunlight exposure (80 MJ) ΔE [41]: 1.01 | Sunlight exposure (80 MJ) Appearance [42]: A | Sunlight exposure (80 MJ) ΔE [42]: 1.55 | Sunlight exposure (80 MJ) Appearance [43]: A | Sunlight exposure (80 MJ) ΔE [43]: 0.88 | Sunlight exposure (80 MJ) Appearance [44]: A | Sunlight exposure (80 MJ) ΔE [44]: 1.36 | Sunlight exposure (80 MJ) Appearance [45]: A | Sunlight exposure (80 MJ) ΔE [45]: 0.73 | Sunlight exposure (80 MJ) Appearance [46]: B | Sunlight exposure (80 MJ) ΔE [46]: 1.45 | Sunlight exposure (80 MJ) Appearance [47]: A | Sunlight exposure (80 MJ) ΔE [47]: 0.48 | Sunlight exposure (80 MJ) Appearance [48]: A | Sunlight exposure (80 MJ) ΔE [48]: 0.78 | color difference ΔE (with a sequestering agent, compared with compositions not having a sequestering agent, Tables 24 to 26): very small | change of appearance of the composition (with a sequestering agent, Tables 24 to 26): small

Source: US6395896B2, “Pyridazine derivatives, manufacturing method and related composition” (Shiseido Co., Ltd., priority 1999, dated 2002)
